Molecular target: T1, human M4 muscarinic acetylcholine receptor (Homo sapiens, UniProt P08173)
T1 construct: expressed in transfected cells; host or cells: CHO-K1
T1 sequence (P08173 1-479): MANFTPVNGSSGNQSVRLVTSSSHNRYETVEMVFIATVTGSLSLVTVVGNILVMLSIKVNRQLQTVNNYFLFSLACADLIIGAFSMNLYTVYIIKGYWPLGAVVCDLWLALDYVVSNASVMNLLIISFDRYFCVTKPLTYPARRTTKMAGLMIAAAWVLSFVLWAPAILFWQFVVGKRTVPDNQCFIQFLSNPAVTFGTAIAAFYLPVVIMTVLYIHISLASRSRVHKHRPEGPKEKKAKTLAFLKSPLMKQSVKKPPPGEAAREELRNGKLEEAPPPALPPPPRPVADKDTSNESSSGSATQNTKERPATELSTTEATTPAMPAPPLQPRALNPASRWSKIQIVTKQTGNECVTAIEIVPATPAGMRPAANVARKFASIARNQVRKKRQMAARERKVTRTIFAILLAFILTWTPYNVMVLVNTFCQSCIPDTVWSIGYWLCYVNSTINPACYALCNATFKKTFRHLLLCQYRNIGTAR
Test: human FLIPR-based M4 PAM assay (CHO-K1 cells with human M4 receptor and Gaqi5, calcium dye fluorescence)
Assay type: cell-based
Details: inflection point (IP) of dose response curve, acetylcholine added at 20% of maximum response, read-out: M4 FLIPPR Hu IP
Description: (§1) In a typical experiment the M4 muscarinic acetylcholine receptor modulating activity of the compounds of the present invention was determined in accordance with the following experimental method. CHO-K1 cells stably transfected with human M4 receptor and chimeric G-protein Gaqi5 (Coward P, et al., Analytical Biochemistry, 270:242-248 (1999)) are thawed from liquid N2 storage, resuspended in growth medium, plated in black, clear bottom 384 well plates, and incubated 16-20 hours at 37° C., 5% CO2. On the day of assay, growth medium is removed, the cells are washed 2 times with wash buffer, and cells are incubated in dye loading buffer at 37° C., 5% CO2 for ˜1 hour. Following dye loading the cell plates are placed in a FLIPR Tetra instrument and while monitoring dye fluorescence (excitation 470-495 […]), 10 uL of test substance at increasing concentrations is added, and fluorescence values are recorded for 4 min. Next, 10 uL of acetylcholine is added (final concentration calculated so as to achieve 20% of the maximum acetycholine response), and the fluorescence reading is continued for 3.5 min. In some cases, a third addition of acetylcholine (final concentration calculated to achieve 70% of the maximal acetylcholine response) is performed. The resulting dose response curves are fit to a 4 parameter logistic equation and the final result is determined as the inflection point (IP) of the curve
as §1, with “CHO-K1” for “In a typical experiment the M4 muscarinic acetylcholine receptor modulating activity of the compounds of the present invention was determined in accordance with the following experimental method. CHO-K1”, “Gaqi5” for “Gaqi5 (Coward P, et al., Analytical Biochemistry, 270:242-248 (1999))”, “performed.” for “performed. The resulting dose response curves are fit to a 4 parameter logistic equation and the final result is determined as the inflection point (IP) of the curve”

| Compound | EC50 |
| --- | --- |
| Cc1ccc(-c2cnn(CC3C[C@@H](F)[C@@H](F)C3)c2)c(-c2ccc3cccnc3c2)n1 (mixture of isomers) [Example 27, 7-(3-(1-(((3R,4S and 3S,4R)-3,4-difluorocyclopentyl)methyl)-1H-pyrazol-4-yl)-6-methylpyridin-2-yl)quinoline (+/−)] | 64 nM |
| Cc1ccc(-c2cnn(CC3C[C@H](F)[C@@H](F)C3)c2)c(-c2ccc3cccnc3c2)n1 (racemic) [Example 29, 7-(3-(1-(((3S,4S and 3R,4R)-3,4-difluorocyclopentyl)methyl)-1H-pyrazol-4-yl)-6-methylpyridin-2-yl)quinoline] | 39 nM |
| Cc1ccc(-c2cnn(C[C@H]3CC[C@H](F)C3)c2)c(-c2ccc3cccnc3c2)n1 (racemic) [Example 30, 7-(3-(1-(((1S,3S and 1R,3R)-3-fluorocyclopentyl)methyl)-1H-pyrazol-4-yl)-6-methylpyridin-2-yl)quinoline] | 32 nM |
| Cc1ccc(-c2cnn(C[C@@H]3CC[C@H](F)C3)c2)c(-c2ccc3cccnc3c2)n1 (racemic) [Example 31, 7-(3-(1-(((1R,3S and 1S,3R)-3-fluorocyclopentyl)methyl)-1H-pyrazol-4-yl)-6-methylpyridin-2-yl)quinoline] | 29 nM |
| Cc1ccc(-c2cnn(CC3CCC(F)(F)C3)c2)c(-c2ccc3cccnc3c2)n1 (single isomer, unassigned) [Example 129, (S or R)-7-(3-(1-((3,3-difluorocyclopentyl)methyl)-1H-pyrazol-4-yl)-6-methylpyridin-2-yl)quinoline] | 22 nM |
| Cc1ccc(-c2cnn(CC3CCC(F)(F)C3)c2)c(-c2ccc3cccnc3c2)n1 (single isomer, unassigned) [Example 130, (R or S)-7-(3-(1-((3,3-difluorocyclopentyl)methyl)-1H-pyrazol-4-yl)-6-methylpyridin-2-yl)quinoline] | 25 nM |
| Cc1ccc(-c2cnn(C[C@H]3CC[C@H](F)C3)c2)c(-c2ccc3cccnc3c2)n1 (single isomer, unassigned) [Example 131, 7-(3-(1-(((1S,3S) or (1R,3R)-3-fluorocyclopentyl)methyl)-1H-pyrazol-4-yl)-6-methylpyridin-2-yl)quinoline] | 31 nM |
| Cc1ccc(-c2cnn(C[C@@H]3CC[C@@H](F)C3)c2)c(-c2ccc3cccnc3c2)n1 (single isomer, unassigned) [Example 132, 7-(3-(1-(((1R,3R) or (1S,3S)-3-fluorocyclopentyl)methyl)-1H-pyrazol-4-yl)-6-methylpyridin-2-yl)quinoline] | 17 nM |
| Cc1ccc(-c2cnn(C[C@@H]3CC[C@H](F)C3)c2)c(-c2ccc3cccnc3c2)n1 (single isomer, unassigned) [Example 133, 7-(3-(1-(((1R,3S) or (1S,3R)-3-fluorocyclopentyl)methyl)-1H-pyrazol-4-yl)-6-methylpyridin-2-yl)quinoline] | 17 nM |
| Cc1ccc(-c2cnn(C[C@H]3CC[C@@H](F)C3)c2)c(-c2ccc3cccnc3c2)n1 (single isomer, unassigned) [Example 134, 7-(3-(1-(((1S,3R) or (1R,3S)-3-fluorocyclopentyl)methyl)-1H-pyrazol-4-yl)-6-methylpyridin-2-yl)quinoline] | 26 nM |
| COc1cc2ccc(-c3nc(C)ccc3-c3cnn(CC4(C)CCC(=O)C4)c3)cc2nn1 (single isomer, unassigned) [Example 148, (S or R)-3-((4-(2-(3-methoxycinnolin-7-yl)-6-methylpyridin-3-yl)-1H-pyrazol-1-yl)methyl)-3-methylcyclopentan-1-one] | 67 nM |
| COc1cc2ccc(-c3nc(C)ccc3-c3cnn(CC4(C)CCC(F)(F)C4)c3)cc2nn1 (single isomer, unassigned) [Example 150, (R or S)-7-(3-(1-((3,3-difluoro-1-methylcyclopentyl)methyl)-1H-pyrazol-4-yl)-6-methylpyridin-2-yl)-3-methoxycinnoline] | 22 nM |
